Test results published in PubChem BioAssay AID248 (DTP/NCI, 2004).
Where “and” joins values, the source holds several entries; their conditions need not be identical. Equal entries are not always repeated. Toxic doses and inconclusive results are not listed. Cut-off read from the data, not from the text of the source: active = T/C of 150% or more; inactive = T/C below 125%.

Tested on: L1210 leukemia ip in BDF1 mice, survival T/C
Assay: NCI In Vivo Anticancer Drug Screen. Data for tumor model L1210 Leukemia (intraperitoneal) in B6D2F1 (BDF1) mice
Details: endpoint: mean survival time, higher = longer survival
In short: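 In this screen, tumor-bearing mice given compound are compared to those given vehicle, and their survival values are reported as a treated-to-control quotient.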

[1] = dose: 50.0 mg/kg/injection, schedule: Q01DX009 (ip), vehicle: saline
[2] = dose: 100.0 mg/kg/injection, schedule: Q01DX009 (ip), vehicle: saline
[3] = dose: 200.0 mg/kg/injection, schedule: Q01DX009 (ip), vehicle: saline
[4] = dose: 50.0 mg/kg/injection, schedule: Q01DX009 (ip), vehicle: saline with Tween-80
[5] = dose: 100.0 mg/kg/injection, schedule: Q01DX009 (ip), vehicle: saline with Tween-80
[6] = dose: 200.0 mg/kg/injection, schedule: Q01DX009 (ip), vehicle: saline with Tween-80
[7] = dose: 100.0 mg/kg/injection, schedule: Q04DX003 (ip), vehicle: Klucel (hydroxypropylcellulose) (HPC)
[8] = dose: 200.0 mg/kg/injection, schedule: Q04DX003 (ip), vehicle: Klucel (hydroxypropylcellulose) (HPC)
[9] = dose: 400.0 mg/kg/injection, schedule: Q04DX003 (ip), vehicle: Klucel (hydroxypropylcellulose) (HPC)
[10] = dose: 75.0 mg/kg/injection, schedule: Q01DX001 (ip), vehicle: saline
[11] = dose: 150.0 mg/kg/injection, schedule: Q01DX001 (ip), vehicle: saline
[12] = dose: 300.0 mg/kg/injection, schedule: Q01DX001 (ip), vehicle: saline
[13] = dose: 100.0 mg/kg/injection, schedule: Q01DX001 (ip), vehicle: saline
[14] = dose: 200.0 mg/kg/injection, schedule: Q01DX001 (ip), vehicle: saline
[15] = dose: 400.0 mg/kg/injection, schedule: Q01DX001 (ip), vehicle: saline

Measured: T/C

COc1ccc(C(=O)Nc2cccc3ccccc23)cc1
inactive: dose: 100.0 mg/kg/injection, schedule: Q01DX009 (ip), vehicle: carboxymethylcellulose (CMC) 95 % of control | dose: 100.0 mg/kg/injection, schedule: Q04DX002 (ip), vehicle: Klucel (hydroxypropylcellulose) (HPC) 108 % of control | dose: 100.0 mg/kg/injection, schedule: Q04DX002 (ip), vehicle: carboxymethylcellulose (CMC) 93 % of control and 97 % of control | dose: 100.0 mg/kg/injection, schedule: Q04DX003 (ip), vehicle: carboxymethylcellulose (CMC) 103 % of control | dose: 200.0 mg/kg/injection, schedule: Q01DX009 (ip), vehicle: carboxymethylcellulose (CMC) 98 % of control and 90 % of control | dose: 200.0 mg/kg/injection, schedule: Q04DX002 (ip), vehicle: Klucel (hydroxypropylcellulose) (HPC) 102 % of control | dose: 200.0 mg/kg/injection, schedule: Q04DX002 (ip), vehicle: carboxymethylcellulose (CMC) 95 % of control and 103 % of control | dose: 200.0 mg/kg/injection, schedule: Q04DX003 (ip), vehicle: carboxymethylcellulose (CMC) 103 % of control | dose: 400.0 mg/kg/injection, schedule: Q01DX009 (ip), vehicle: carboxymethylcellulose (CMC) 93 % of control and 87 % of control | dose: 400.0 mg/kg/injection, schedule: Q04DX002 (ip), vehicle: Klucel (hydroxypropylcellulose) (HPC) 112 % of control | dose: 400.0 mg/kg/injection, schedule: Q04DX002 (ip), vehicle: carboxymethylcellulose (CMC) 100 % of control and 101 % of control | dose: 400.0 mg/kg/injection, schedule: Q04DX003 (ip), vehicle: carboxymethylcellulose (CMC) 97 % of control

CC1CCCCC1=C(C#N)C#N (centres undefined)
inactive: dose: 5.0 mg/kg/injection, schedule: Q01DX001 (ip), vehicle: saline 97 % of control | dose: 10.0 mg/kg/injection, schedule: Q01DX001 (ip), vehicle: saline 121 % of control | dose: 20.0 mg/kg/injection, schedule: Q01DX001 (ip), vehicle: saline 94 % of control | dose: 40.0 mg/kg/injection, schedule: Q01DX001 (ip), vehicle: saline 103 % of control

CNC(=O)N(c1ccccc1)C1CCCCC1
inactive: [1] 112 % of control | [2] 103 % of control | dose: 100.0 mg/kg/injection, schedule: Q04DX003 (ip), vehicle: saline 104 % of control | [3] 103 % of control | dose: 200.0 mg/kg/injection, schedule: Q04DX003 (ip), vehicle: saline 97 % of control

COc1ccc(NC2=NCCS2)cc1
inactive: [4] 95 % of control | [5] 95 % of control | [6] 96 % of control

CCOC(=O)Cc1cnc(SC)nc1Cl
inactive: [4] 98 % of control | [5] 91 % of control | dose: 100.0 mg/kg/injection, schedule: Q04DX003 (ip), vehicle: saline with Tween-80 92 % of control | [6] 88 % of control | dose: 200.0 mg/kg/injection, schedule: Q04DX003 (ip), vehicle: saline with Tween-80 92 % of control

CC(=O)Nc1cc([N+](=O)[O-])ccc1O
inactive: [7] 101 % of control | [8] 101 % of control | [9] 101 % of control

CC(C)(C)[Si](O)C(C)(C)C
inactive: [10] 91 % of control | [11] 98 % of control | [12] 96 % of control

CC1(C)C(=C(C#N)C#N)C(C)(C)C1=C(C#N)C#N
inactive: [13] 114 % of control | [14] 96 % of control | [15] 90 % of control

O=C(CC(CC(=O)c1ccccc1)c1ccccn1)c1ccccc1
inactive: dose: 50.0 mg/kg/injection, schedule: Q01DX001 (ip), vehicle: other 105 % of control | dose: 100.0 mg/kg/injection, schedule: Q01DX001 (ip), vehicle: other 100 % of control | dose: 200.0 mg/kg/injection, schedule: Q01DX001 (ip), vehicle: other 96 % of control | dose: 400.0 mg/kg/injection, schedule: Q01DX001 (ip), vehicle: other 102 % of control

CC(/C=N/NC(N)=S)=N\N=C(N)N
inactive: dose: 15.0 mg/kg/injection, schedule: Q01DX Z (ip), vehicle: carboxymethylcellulose (CMC) 98 % of control | dose: 30.0 mg/kg/injection, schedule: Q01DX Z (ip), vehicle: carboxymethylcellulose (CMC) 101 % of control | dose: 60.0 mg/kg/injection, schedule: Q01DX Z (ip), vehicle: carboxymethylcellulose (CMC) 98 % of control | dose: 120.0 mg/kg/injection, schedule: Q01DX Z (ip), vehicle: carboxymethylcellulose (CMC) 98 % of control

CCOSc1ccc([N+](=O)[O-])cc1[N+](=O)[O-]
inactive: dose: 50.0 mg/kg/injection, schedule: Q01DX001 (ip), vehicle: saline 90 % of control | [13] 93 % of control | [14] 90 % of control | [15] 95 % of control

CC(=O)n1c(N)nc2ccccc21
inactive: dose: 100.0 mg/kg/injection, schedule: Q01DX009 (ip), vehicle: Klucel (hydroxypropylcellulose) (HPC) 103 % of control | dose: 200.0 mg/kg/injection, schedule: Q01DX009 (ip), vehicle: Klucel (hydroxypropylcellulose) (HPC) 102 % of control

O=C1CCn2c1c(O)c1ccccc1c2=O
inactive: [13] 97 % of control | [14] 97 % of control

CC/C(=C(\CC)c1ccc(OC)cc1)c1ccc(O)cc1
inactive: dose: 15.0 mg/kg/injection, schedule: Q01DX Z (sc), vehicle: steriod suspending solution 105 % of control | dose: 30.0 mg/kg/injection, schedule: Q01DX Z (sc), vehicle: steriod suspending solution 106 % of control | dose: 60.0 mg/kg/injection, schedule: Q01DX Z (sc), vehicle: steriod suspending solution 96 % of control and 103 % of control | dose: 90.0 mg/kg/injection, schedule: Q01DX Z (sc), vehicle: steriod suspending solution 103 % of control | dose: 135.0 mg/kg/injection, schedule: Q01DX Z (sc), vehicle: steriod suspending solution 102 % of control | [14] 96 % of control | dose: 200.0 mg/kg/injection, schedule: Q01DX Z (sc), vehicle: steriod suspending solution 100 % of control | dose: 250.0 mg/kg/injection, schedule: Q01DX015 (sc), vehicle: steriod suspending solution 97 % of control | [15] 104 % of control | dose: 500.0 mg/kg/injection, schedule: Q01DX015 (sc), vehicle: steriod suspending solution 93 % of control | dose: 750.0 mg/kg/injection, schedule: Q01DX015 (sc), vehicle: steriod suspending solution 95 % of control | dose: 800.0 mg/kg/injection, schedule: Q01DX001 (ip), vehicle: saline 98 % of control | dose: 1000.0 mg/kg/injection, schedule: Q01DX015 (sc), vehicle: steriod suspending solution 90 % of control

Cc1cccc(-n2c(N)cc(=O)[nH]c2=S)n1
inactive: dose: 12.5 mg/kg/injection, schedule: Q01DX009 (ip), vehicle: saline 97 % of control | dose: 12.5 mg/kg/injection, schedule: Q04DX003 (ip), vehicle: saline 96 % of control | dose: 25.0 mg/kg/injection, schedule: Q01DX009 (ip), vehicle: saline 96 % of control | dose: 25.0 mg/kg/injection, schedule: Q04DX003 (ip), vehicle: saline 96 % of control | [1] 94 % of control and 105 % of control | dose: 50.0 mg/kg/injection, schedule: Q04DX003 (ip), vehicle: saline 91 % of control | [2] 87 % of control

O=C1CCC(=O)N1c1ccc(Br)cc1
inactive: dose: 50.0 mg/kg/injection, schedule: Q01DX001 (ip), vehicle: carboxymethylcellulose (CMC) 102 % of control | dose: 100.0 mg/kg/injection, schedule: Q01DX001 (ip), vehicle: carboxymethylcellulose (CMC) 102 % of control | dose: 200.0 mg/kg/injection, schedule: Q01DX001 (ip), vehicle: carboxymethylcellulose (CMC) 98 % of control | dose: 400.0 mg/kg/injection, schedule: Q01DX001 (ip), vehicle: carboxymethylcellulose (CMC) 98 % of control

CCOP(=S)(N1CCNCC1)N1CCNCC1
inactive: [10] 90 % of control | dose: 75.0 mg/kg/injection, schedule: Q01DX009 (ip), vehicle: Klucel (hydroxypropylcellulose) (HPC) 95 % of control | [11] 92 % of control | dose: 150.0 mg/kg/injection, schedule: Q01DX009 (ip), vehicle: Klucel (hydroxypropylcellulose) (HPC) 120 % of control | [12] 100 % of control

S=C(Nc1ccc(Cl)cc1)Nc1ccc(Cl)cc1
inactive: [7] 108 % of control | [8] 103 % of control | [9] 97 % of control

CC(=O)CC(=O)OCc1ccccc1
inactive: [2] 93 % of control | [3] 92 % of control | dose: 400.0 mg/kg/injection, schedule: Q01DX009 (ip), vehicle: saline 95 % of control
